Test results published in BigSolDB 2.1.

NC(=O)c1cnccn1
solubility (mole fraction)
Settings | 278.15 K | 283.15 K | 288.15 K | 293.15 K | 298.15 K | 303.15 K | 308.15 K | 313.15 K | 318.15 K | 323.15 K
in acetone | 0.00249 | 0.00304 | 0.00357 | 0.00424 | 0.00495 | 0.00574 | 0.00674 | 0.00784 | 0.00897 | 0.00975
in acetonitrile | 0.00125 | 0.00162 | 0.00205 | 0.00248 | 0.00294 | 0.00351 | 0.0042 | 0.00497 | 0.0058 | 0.00633
in ethyl acetate | 0.0016 | 0.00219 | 0.0024 | 0.00312 | 0.0035 | 0.00416 | 0.00475 | 0.00581 | 0.00666 | 0.00775
in isopropanol | 0.000619 | 0.000973 | 0.00136 | 0.00181 | 0.00224 | 0.00279 | 0.00365 | 0.00466 | 0.00574 | 0.00692
in methanol | 0.00208 | 0.00265 | 0.00328 | 0.00384 | 0.0047 | 0.00563 | 0.0071 | 0.00828 | 0.01 | –
in n-butanol | 0.000772 | 0.00116 | 0.00148 | 0.00192 | 0.00237 | 0.00309 | 0.00396 | 0.00512 | 0.00623 | 0.00731
in n-propanol | 0.000775 | 0.00123 | 0.00145 | 0.00179 | 0.00245 | 0.00297 | 0.00394 | 0.00503 | 0.00616 | 0.00707
in sec-butanol | 0.00053 | 0.00081 | 0.00108 | 0.0015 | 0.00188 | 0.00252 | 0.00332 | 0.00434 | 0.00564 | 0.00696
in water | 0.00105 | 0.00131 | 0.00168 | 0.00194 | 0.0024 | 0.00284 | 0.00362 | 0.00421 | 0.00521 | 0.006
